Data from EP2970215B1, “PYRROLIDINE DERIVATIVES, PHARMACEUTICAL COMPOSITIONS CONTAINING THEM, AND THEIR USE IN THERAPY” (AbbVie Deutschland GmbH & Co. KG, priority 2013, dated 2014).

Target: T1, human GlyT1c transporter (Homo sapiens, UniProt P48067)
T1 construct: expressed in transfected cells; host or cells: CHO cells (recombinant; line hGlyT1c_5_CHO is named for the uptake assay)
T1 sequence (P48067 1-706): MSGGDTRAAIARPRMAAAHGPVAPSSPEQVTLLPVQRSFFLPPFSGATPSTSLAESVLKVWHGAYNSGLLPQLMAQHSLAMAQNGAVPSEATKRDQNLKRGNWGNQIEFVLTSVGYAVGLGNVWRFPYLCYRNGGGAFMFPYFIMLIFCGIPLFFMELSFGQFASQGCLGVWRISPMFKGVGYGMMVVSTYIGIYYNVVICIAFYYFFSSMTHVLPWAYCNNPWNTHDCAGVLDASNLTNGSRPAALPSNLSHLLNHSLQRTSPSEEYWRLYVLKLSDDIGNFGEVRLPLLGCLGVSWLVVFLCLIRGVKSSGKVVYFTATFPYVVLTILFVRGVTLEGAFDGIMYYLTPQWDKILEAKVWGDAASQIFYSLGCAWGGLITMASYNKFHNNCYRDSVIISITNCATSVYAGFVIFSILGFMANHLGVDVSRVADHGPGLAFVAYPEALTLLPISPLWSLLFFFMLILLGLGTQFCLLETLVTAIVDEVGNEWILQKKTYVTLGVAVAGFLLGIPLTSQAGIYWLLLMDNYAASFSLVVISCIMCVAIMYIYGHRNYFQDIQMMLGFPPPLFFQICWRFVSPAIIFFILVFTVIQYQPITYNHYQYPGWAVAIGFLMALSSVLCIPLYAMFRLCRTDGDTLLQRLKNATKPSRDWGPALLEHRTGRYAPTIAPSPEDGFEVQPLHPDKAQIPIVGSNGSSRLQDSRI
Test: Radioligand binding assay using recombinant CHO cell membranes expressing human GlyT1
Conditions: radioligand binding to human GlyT1c transporter-expressing membranes
Description: 2. Radioligand binding assays using recombinant CHO cell membranes expressing human GlyT1: […]

SMILES	Ki [µM]
Cn1cnc(S(=O)(=O)N2C[C@@H](Nc3ccccc3)[C@H](c3ccccc3)C2)c1 (relative stereo) [Example 29, trans-1-[(1-methyl-1H-imidazol-4-yl)sulfonyl]-N,4-diphenylpyrrolidin-3-amine]	≤ 1
Cn1cnc(S(=O)(=O)N2C[C@@H](NC(=O)c3ccccc3C#N)[C@H](c3ccccc3)C2)c1 (relative stereo) [Example 32, 2-cyano-N-{trans-1-[(1-methyl-1H-imidazol-4-yl)sulfonyl]-4-phenylpyrrolidin-3-yl} benzamide]	≤ 10
Cn1cnc(S(=O)(=O)N2C[C@@H](NC(=O)c3ccc(C#N)cc3)[C@H](c3ccccc3)C2)c1 (relative stereo) [Example 34, 4-cyano-N-{trans-1-[(1-methyl-1H-imidazol-4-yl)sulfonyl]-4-phenylpyrrolidin-3-yl} benzamide]	≤ 10
Cn1cnc(S(=O)(=O)N2C[C@@H](NC(=O)c3cccc(C(F)(F)F)c3)[C@H](c3ccccc3)C2)c1 (relative stereo) [Example 36, N-{trans-1-[(1-methyl-1H-imidazol-4-yl)sulfonyl]-4-phenylpyrrolidin-3-yl}-3-(trifluoromethyl)benzamide]	≤ 1
Cn1cc(S(=O)(=O)N2C[C@@H](NC(=O)c3cccc(C(F)(F)F)c3Cl)[C@H](c3ccccc3)C2)c(C(F)(F)F)n1 (relative stereo) [Example 38, 2-chloro-N-[trans-1-{[1-methyl-3-(trifluoromethyl)-1H-pyrazol-4-yl]sulfonyl}-4-phenylpyrrolidin-3-yl]-3-(trifluoromethyl)benzamide]	≤ 10
Cc1nn(C(F)F)c(C)c1S(=O)(=O)N1C[C@@H](NC(=O)c2cccc(C(F)(F)F)c2Cl)[C@H](c2ccccc2)C1 (relative stereo) [Example 39, 2-chloro-N-[trans-1-{[1-(difluoromethyl)-3,5-dimethyl-1H-pyrazol-4-yl]sulfonyl}-4-phenylpyrrolidin-3-yl]-3-(trifluoromethyl)benzamide]	≤ 10
Cc1nn(C)c(Cl)c1S(=O)(=O)N1C[C@@H](NC(=O)c2cccc(C(F)(F)F)c2Cl)[C@H](c2ccccc2)C1 (relative stereo) [Example 40, 2-chloro-N-{trans-1-[(5-chloro-1,3-dimethyl-1H-pyrazol-4-yl)sulfonyl]-4-phenylpyrrolidin-3-yl}-3-(trifluoromethyl)benzamide]	≥ 10
COc1ccc(S(=O)(=O)N2C[C@@H](NC(=O)c3cccc(C(F)(F)F)c3Cl)[C@H](c3ccccc3)C2)cn1 (relative stereo) [Example 44, 2-chloro-N-{trans-1-[(6-methoxypyridin-3-yl)sulfonyl}-4-phenylpyrrolidin-3-yl}-3-(trifluoromethyl)benzamide]	≤ 10
O=C(N[C@@H]1CN(S(=O)(=O)c2cccnc2)C[C@H]1c1ccccc1)c1cccc(C(F)(F)F)c1Cl (relative stereo) [Example 45, 2-chloro-N-[trans-4-phenyl-1-(pyridin-3-ylsulfonyl)pyrrolidin-3-yl]-3-(trifluoromethyl)benzamide]	≥ 10
O=C(N[C@@H]1CN(S(=O)(=O)c2cn[nH]c2)C[C@H]1c1ccccc1)c1cccc(C(F)(F)F)c1Cl (relative stereo) [Example 46, 2-chloro-N-[trans-4-phenyl-1-(1H-pyrazol-4-ylsulfonyl)pyrrolidin-3-yl]-3-(trifluoromethyl)benzamide]	≥ 10

Further lines, results first:

Ki [µM]	SMILES
≤ 1	Cn1cnc(S(=O)(=O)N2C[C@@H](NC(=O)c3ccc(F)cc3Cl)[C@H](c3ccccc3)C2)c1 (relative stereo) [Example 27, 2-chloro-4-fluoro-N-{trans-1-[(1-methyl-1H-imidazol-4-yl)sulfonyl]-4-phenylpyrrolidin-3-yl}benzamide]
≤ 10	Cn1cnc(S(=O)(=O)N2C[C@@H](NC(=O)c3cc(Cl)cc(Cl)c3)[C@H](c3ccccc3)C2)c1 (relative stereo) [Example 30, 3,5-dichloro-N-{trans-1-[(1-methyl-1H-imidazol-4-yl)sulfonyl]-4-phenylpyrrolidin-3-yl}benzamide]
≤ 1	Cn1cnc(S(=O)(=O)N2C[C@@H](NC(=O)c3cccc(Cl)c3Cl)[C@H](c3ccccc3)C2)c1 (relative stereo) [Example 31, 2,3-dichloro-N-{trans-1-[(1-methyl-1H-imidazol-4-yl)sulfonyl]-4-phenylpyrrolidin-3-yl}benzamide]
≤ 10	Cn1cnc(S(=O)(=O)N2C[C@@H](NC(=O)c3cccc(C#N)c3)[C@H](c3ccccc3)C2)c1 (relative stereo) [Example 33, 3-cyano-N-{trans-1-[(1-methyl-1H-imidazol-4-yl)sulfonyl]-4-phenylpyrrolidin-3-yl}benzamide]
≤ 10	Cn1cnc(S(=O)(=O)N2C[C@@H](NC(=O)c3ccccc3C(F)(F)F)[C@H](c3ccccc3)C2)c1 (relative stereo) [Example 35, N-{trans-1-[(1-methyl-1H-imidazol-4-yl)sulfonyl]-4-phenylpyrrolidin-3-yl}-2-(trifluoromethyl)benzamide]
≤ 1	Cn1cnc(S(=O)(=O)N2C[C@@H](NC(=O)c3ccc(C(F)(F)F)cc3)[C@H](c3ccccc3)C2)c1 (relative stereo) [Example 37, N-{trans-1-[(1-methyl-1H-imidazol-4-yl)sulfonyl]-4-phenylpyrrolidin-3-yl}-4-(trifluoromethyl)benzamide]
≤ 10	Cc1c(S(=O)(=O)N2C[C@@H](NC(=O)c3cccc(C(F)(F)F)c3Cl)[C@H](c3ccccc3)C2)cnn1C (relative stereo) [Example 41, 2-chloro-N-{trans-1-[(1,5-dimethyl-1H-pyrazol-4-yl)sulfonyl]-4-phenylpyrrolidin-3-yl}-3-(trifluoromethyl)benzamide]
≤ 10	Cc1nn(C)cc1S(=O)(=O)N1C[C@@H](NC(=O)c2cccc(C(F)(F)F)c2Cl)[C@H](c2ccccc2)C1 (relative stereo) [Example 42, 2-chloro-N-{trans-1-[(1,3-dimethyl-1H-pyrazol-4-yl)sulfonyl]-4-phenylpyrrolidin-3-yl}-3-(trifluoromethyl)benzamide]
≤ 10	Cn1cc(S(=O)(=O)N2C[C@@H](NC(=O)c3cccc(C(F)(F)F)c3Cl)[C@H](c3ccccc3)C2)cn1 (relative stereo) [Example 43, 2-chloro-N-{trans-1-[(1-methyl-1H-pyrazol-4-yl)sulfonyl]-4-phenylpyrrolidin-3-yl}-3-(trifluoromethyl)benzamide]
≥ 10	Cn1nccc1S(=O)(=O)N1C[C@@H](NC(=O)c2cccc(C(F)(F)F)c2Cl)[C@H](c2ccccc2)C1 (relative stereo) [Example 47, 2-chloro-N-{trans-1-[(1-methyl-1H-pyrazol-5-yl)sulfonyl]-4-phenylpyrrolidin-3-yl}-3-(trifluoromethyl)benzamide]
≤ 10	Cn1cnc(S(=O)(=O)N2C[C@@H](NC(=O)c3cccc(C(F)(F)F)c3Cl)[C@H](c3ccccc3)C2)c1Cl (relative stereo) [Example 48, 2-chloro-N-{trans-1-[(5-chloro-1-methyl-1H-imidazol-4-yl)sulfonyl]-4-phenylpyrrolidin-3-yl}-3-(trifluoromethyl)benzamide]
≤ 10	Cn1ccc(S(=O)(=O)N2C[C@@H](NC(=O)c3cccc(C(F)(F)F)c3Cl)[C@H](c3ccccc3)C2)n1 (relative stereo) [Example 49, 2-chloro-N-{trans-1-[(1-methyl-1H-pyrazol-3-yl)sulfonyl]-4-phenylpyrrolidin-3-yl}-3-(trifluoromethyl)benzamide]
